Test results as given in the NIST ThermoML archive (doi:10.1021/je100967k).
“And” between values parts separate entries of the source, which are not always exact repeats. Equal values may be shown once.

Experiments:
[1] = refractive index (Na D-line) (dimensionless); xn = mol fraction of the nth substance listed; settings: 101 kPa, Liquid, Standard Abbe refractometry
[2] = xn = mol fraction of the nth substance listed; settings: 101 kPa, Liquid; for speed of sound: Pulse-echo method
[3] = 101 kPa, Liquid; for speed of sound: Pulse-echo method
[4] = refractive index (Na D-line) (dimensionless); settings: 101.33 kPa, Liquid, Standard Abbe refractometry

CCO [ethanol] + CN1CCCC1=O
x2 = 0
Settings	mass density, [2] [kg/m3]	refractive index, [1]	speed of sound, [2] [m/s]	viscosity, [2] [mPa·s]
293.15 K	789.54	1.3616	1162.3	1.116
303.15 K	780.94	1.3574	1128.9	0.9502
313.15 K	772.2	1.3532	1095.4	0.7899
323.15 K	763.29	1.3493	1071.9	0.6304

CCO [ethanol]
Settings	mass density, [3] [kg/m3]	refractive index, [4]	speed of sound, [3] [m/s]	viscosity, [3] [mPa·s]
293.15 K	789.54	1.3616	1162.3	1.116
303.15 K	780.94	1.3574	1128.9	0.9502
313.15 K	772.2	1.3532	1095.4	0.7899
323.15 K	763.29	1.3493	1071.9	0.6304

CN1CCCC1=O [N-methylpyrrolidone] + NCCO
x1 = 1
Settings	mass density, [2] [kg/m3]	refractive index, [1]	speed of sound, [2] [m/s]	viscosity, [2] [mPa·s]
293.15 K	1032.87	1.4691	1565.3	1.858
303.15 K	1023.95	1.4647	1526.5	1.553
313.15 K	1015.03	1.4603	1487.8	1.324
323.15 K	1006.1	1.4559	1450.2	1.146

CN1CCCC1=O [N-methylpyrrolidone]
Settings	mass density, [3] [kg/m3]	refractive index, [4]	speed of sound, [3] [m/s]	viscosity, [3] [mPa·s]
293.15 K	1032.87	1.4706 and 1.4691	1565.3	1.858
303.15 K	1023.95	1.4664 and 1.4647	1526.5	1.553
313.15 K	1015.03	1.4621 and 1.4603	1487.8	1.324
323.15 K	1006.1	1.4576 and 1.4559	1450.2	1.146

NCCO [2-aminoethan-1-ol]
Settings	mass density, [3] [kg/m3]	refractive index, [4]	speed of sound, [3] [m/s]	viscosity, [3] [mPa·s]
293.15 K	1016.65	1.4525	1735.9	24.61
303.15 K	1008.74	1.4488	1703.7	14.96
313.15 K	1000.77	1.4449	1671.2	9.839
323.15 K	992.75	1.4417	1638.8	6.902
